Measured values reported in paper PMC12974487, “Inhibition of FicD-mediated AMPylation and deAMPylation by isoprenoid diphosphates” (Proceedings of the National Academy of Sciences of the …, 2026).

Biological target: T1, FicD^R371S (Homo sapiens, UniProt Q9BVA6, R371S)
T1 construct: Wild-type FicD (residues 105-458) and all mutants were expressed as N-terminal 6xHis-Sumo fusions; 6xHis-Sumo (N, cleaved yes); made in house; host or cells: Rosetta(DE3) E. coli
T1 sequence (Q9BVA6 105-458 R371S): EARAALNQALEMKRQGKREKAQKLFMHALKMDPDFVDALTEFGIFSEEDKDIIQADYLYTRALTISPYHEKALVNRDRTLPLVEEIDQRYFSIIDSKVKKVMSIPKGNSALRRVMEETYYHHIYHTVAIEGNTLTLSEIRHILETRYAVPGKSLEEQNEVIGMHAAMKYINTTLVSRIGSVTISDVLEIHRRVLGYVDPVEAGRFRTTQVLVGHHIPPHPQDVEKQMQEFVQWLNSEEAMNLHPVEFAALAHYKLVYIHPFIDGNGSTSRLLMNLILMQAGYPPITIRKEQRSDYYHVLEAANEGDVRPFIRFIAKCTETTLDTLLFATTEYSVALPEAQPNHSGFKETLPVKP
Test: DSF with FicD^R371S variant
Assay type: binding
Conditions: addition of 5 mM MgCl2, any concentration tested

## CC(C)=CCC/C(C)=C/CC/C(C)=C/COP(=O)(O)OP(=O)(O)O [FPP, farnesyl-pyrophosphate]
  binding to FicD^R371S by DSF: did not confer FPP binding
